In publication PMC9192638, “Compact IF2 allows initiator tRNA accommodation into the P site and gates the ribosome to elongation” (Nature Communications, 2022):

B1: ribosomal protein uL11 (natural protein, UniProt Q9HWC5 1-143, looked up)
chain: MAKKIQAYIKLQVKAGQANPSPPVGPALGQHGVNIMEFCKAFNAKTQGQEPGLPTPVIITVYSDRSFTFETKSTPAAVLLKKAAGITSGSARPNSQKVGTVTRAQLEEIAKTKQADLTAADLDAAVRTIAGSARSMGLNVEGV
notes: 50 S ribosomal protein uL11, Pseudomonas aeruginosa PAO1, as part of the 70 S ribosome; Stood in the assay as a subunit of the whole 70 S ribosome with mRNA and fMet-tRNA; also called uL11-NTD; source: endogenous, in 70 S ribosomes purified from P. aeruginosa PAO1 (sucrose cushion, sucrose density gradients)
B2: ribosomal protein uL16 (natural protein, UniProt Q9HWE2 1-137, looked up)
chain: MLQPKRTKFRKQMTGHNRGLAHRGSKVSFGEYALKATSRGRLTARQIESARRALTRHVKRGGKIWIRVFPDKPVTKKPLEVRMGKGKGGVEYWVAQIQPGKVLYEIEGVSEELAREAFALAAAKLPLATSFVKRTVM
notes: 50 S ribosomal protein uL16, Pseudomonas aeruginosa PAO1, as part of the 70 S ribosome; Stood in the assay as a subunit of the whole 70 S ribosome with mRNA and fMet-tRNA; source: endogenous, in 70 S ribosomes purified from P. aeruginosa PAO1 (sucrose cushion, sucrose density gradients)

Legend:
[1] = target: T1, IF2 (initiation factor 2) (Pseudomonas aeruginosa, UniProt Q9HV55); experiment: cryo-EM structure; type: binding; conditions: pH 7.6, 10 mM MgCl2
T1 construct: gene infB; full-length; N-terminal 6xHis-SMT3 tag removed by Ulp1; expressed in E. coli BL21(DE3) Star; compact model residues 337-835

[2] = target: T2, initiation factor 2 (IF2) from Pseudomonas aeruginosa (Pseudomonas aeruginosa PAO1, UniProt Q9HV55 1-840); experiment: cryo-EM structure; rotated 70S-IC with extended IF2-GDPCP (structures II-A and II-B); 2 uM 70 S ribosome, 25 uM mRNA, 10 uM fMet-tRNA, 30 uM IF2, 2 mM GDPCP; 10 mM Hepes 7.6, 60 mM NH4Cl, 15 mM KCl, 10 mM MgCl2; conditions: both partners purified
T2 construct: Translation initiation factor IF2, Pseudomonas aeruginosa PAO1; residues modelled in the maps: 248-332 (N2 sub-domain region, extended IF2) and 337-835 (compact IF2); Co-purifies with GDP; GDPCP was added to the complex, so the sample held IF2-GDP (compact) and IF2-GDPCP (extended); also called PaeIF2; IF2-GDP; source: E. coli BL21 (DE3) Star, purified (HisTrap, Ulp1 cleavage, reverse HisTrap, …)
T2 sequence (Q9HV55 whole entry): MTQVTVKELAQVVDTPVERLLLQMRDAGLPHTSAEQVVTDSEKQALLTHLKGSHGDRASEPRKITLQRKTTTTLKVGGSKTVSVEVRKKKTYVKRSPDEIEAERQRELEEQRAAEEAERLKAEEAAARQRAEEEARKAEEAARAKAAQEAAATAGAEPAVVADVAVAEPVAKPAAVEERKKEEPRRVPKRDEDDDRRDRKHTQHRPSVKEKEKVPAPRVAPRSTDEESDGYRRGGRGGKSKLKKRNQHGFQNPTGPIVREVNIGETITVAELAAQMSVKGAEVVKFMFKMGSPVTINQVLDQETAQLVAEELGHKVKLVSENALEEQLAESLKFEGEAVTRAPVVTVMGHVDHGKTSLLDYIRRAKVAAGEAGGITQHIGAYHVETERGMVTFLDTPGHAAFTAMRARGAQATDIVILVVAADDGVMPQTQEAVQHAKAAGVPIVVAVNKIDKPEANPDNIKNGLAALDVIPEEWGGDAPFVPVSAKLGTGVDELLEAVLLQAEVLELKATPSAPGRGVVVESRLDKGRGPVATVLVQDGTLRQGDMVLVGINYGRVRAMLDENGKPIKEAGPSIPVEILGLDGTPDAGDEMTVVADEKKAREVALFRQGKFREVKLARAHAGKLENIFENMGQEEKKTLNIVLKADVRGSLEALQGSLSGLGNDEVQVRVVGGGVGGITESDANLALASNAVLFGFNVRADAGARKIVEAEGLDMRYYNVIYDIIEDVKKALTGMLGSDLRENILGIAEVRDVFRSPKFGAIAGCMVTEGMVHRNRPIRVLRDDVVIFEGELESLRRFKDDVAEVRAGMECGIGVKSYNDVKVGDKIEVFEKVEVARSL

T1 sequence (Q9HV55 whole entry, the tested form may be a part): as the sequence (Q9HV55 whole entry) above

Molecule	binding result [2]	further results
Nc1nc2c(ncn2[C@@H]2O[C@H](COP(=O)(O)OP(=O)(O)CP(=O)(O)O)[C@@H](O)[C@H]2O)c(=O)[nH]1 [GDPCP, β,γ-methyleneguanosine 5’-triphosphate]	–	cryo-EM structure ([1]; extended IF2 on rotated 70S ribosome initiation complex with mRNA and fMet-tRNA, 2 mM GDPCP added, G-domain nucleotide site with Mg2+): well-defined density for extended IF2 and GDPCP in the G-domain
Nc1nc2c(ncn2[C@@H]2O[C@H](COP(=O)(O)OP(=O)(O)O)[C@@H](O)[C@H]2O)c(=O)[nH]1 [GDP]	–	cryo-EM structure ([1]; compact IF2 on non-rotated 70S ribosome initiation complex with mRNA and fMet-tRNA, GDP co-purified with IF2, G-domain nucleotide site): visualizes the GDP nucleotide bound in the G-domain
B1	binds	–
B2	binds	–
